From publication PMC9325861, “Mouse precision-cut liver slices as an ex vivo model to study drug-induced cholestasis” (Archives of Toxicology, 2022)
“And” between values parts separate entries of the source, which are not always exact repeats. Equal values may be shown once.

Legend:
Bsep (Abcb11) = assay: qRT-PCR gene expression in mouse PCLS: Bsep; assay type: cell-based; conditions: 48 h, when BAs are present
Method: In short, freshly prepared PCLS were transferred to 12-well plates (Greiner bio-one GmbH, Austria), one slice per well.
Three PCLS incubated under a given condition were pooled in a 1.5-mL Rnase-free test tube, snap-frozen in liquid nitrogen, and stored at – 80 °C until analysis. RNA was isolated using a FavorPrep Tissue Total RNA Mini Kit (Favorgen, Vienna, Austria). Subsequently, the RNA yield was quantified using a NanoDrop One instrument (Thermo Fisher Scientific, Massachusetts, USA). Isolated RNA was reverse-transcribed to cDNA using a cDNA synthesis kit (Reverse Transcription System, Promega, Benelux B.V.). The cDNA samples were subsequently loaded in the thermal cycler with a program set to 22 °C for 10 min, 42 °C for 15 min, and 95 °C for 5 min.
qRT-PCR was used to determine the relative mRNA expression levels for the mouse target genes: Bsep (Abcb11), Mrp2 (Abcc2), Mrp3 (Abcc3), Mrp4 (Abcc4), Ntcp (Slc10a1), Fxr (Nr1h4), Cyp7a1 (Cyp7a1), Collagen type 1a1 (Col1a1), Hsp47 (Serpinh1). Primer sequences of the genes tested are given in Supplementary Table S1. QRT-PCR was performed using, the dye, FastStart Universal SYBR Green Master Mix (Roche Diagnostics Netherlands B.V., Almere, the Netherlands) with the ViiA™ 7 Real-Time PCR System (Applied Biosystems, Bleiswijk, the Netherlands). The first cycle constituted 10 min at 95 °C, followed by 40 cycles of 15 s at 95 °C, 30 s at 60 °C and 30 s at 72 °C, followed by 1 cycle dissociation stage (15 s: 95 °C, 60 °C and 95 °C). A minimum of four mouse livers was used for each experiment, using three PCLS per condition. Samples were measured in duplicates. […] Results are expressed as log2(fold change).

mouse PCLS = assay: LC–MS/MS quantification of intracellular BAs in mouse PCLS; assay type: cell-based; conditions: 48 h
Method: In short, freshly prepared PCLS were transferred to 12-well plates (Greiner bio-one GmbH, Austria), one slice per well. […] The composition of the human-like BA mixture was based on serum concentrations in mice and humans, measured by […]. […] A Shimadzu Nexera X2 HPLC system with binary pumps was interfaced to a Thermo Scientific TSQ Quantum ultra-triple quadrupole mass spectrometer. The BA analysis was performed by liquid chromatography-tandem mass spectrometry (LC-MS/MS). Xcalibur software version 2.0.7 by Thermo Scientific was applied in the data processing. […] Phenomenex, Utrecht, the Netherlands) reversed-phase column was used to separate the BAs. The column and autosampler temperatures were set at 55 °C and 4 °C, respectively. The injection volume was 15 μL, and the flow was set at 0.3 mL/min. […] Intracellular BA concentrations in PCLS were measured by LC-MS/MS. Sample preparation for these measurements of intracellular BAs was performed as follows. […] Hereafter, three slices for each condition were pooled in a 1.5-mL test tube, snap-frozen in liquid nitrogen and stored at -80 °C until analysis. […] Samples were subsequently centrifuged for 15 min at 15 °C and 13,000 rpm. The supernatant was collected in a new tube, and the samples were concentrated using a Concentrator plus centrifuge (Eppendorf, Germany). […] The concentrations of CA, CDCA, DCA, LCA, UDCA, HDCA, […] and GCA were determined with MRM-based LC-MS as described above.

[1] = system: primary human hepatocytes; set-up: method as in Ogimura et al. [2017]; conditions: in the presence of a BA mixture, ref Ogimura et al. [2017], read-out: Concentration with 50% toxicity; cited from earlier work
MRP2 = system: MRP2; set-up: method as in Pedersen et al. [2008]; Morgan et al. [2013]; conditions: ref Pedersen et al. [2008]; Morgan et al. [2013]; cited from earlier work
[2] = with humanized BA mixture, CPZ 15 µM, CSA 1 µM, GB 25 µM
[3] = with humanized BA mixture, CPZ 30 µM, CSA 6 µM, GB 65 µM
[4] = without BA mixture, CPZ 15 µM, CSA 1 µM, GB 25 µM
[5] = without BA mixture, CPZ 30 µM, CSA 6 µM, GB 65 µM

Compound: COc1ccc(Cl)cc1C(=O)NCCc1ccc(S(=O)(=O)NC(=O)NC2CCCCC2)cc1 [GB, Glibenclamide]
- Bsep gene expression (Bsep (Abcb11); 25 µM GB): increases
- Bsep gene expression (Bsep (Abcb11); 65 μM GB): decreases Bsep expression significantly
- Effect on total intracellular BA concentration (mouse PCLS; in the absence of the BA mixture): decrease in intracellular concentrations of BAs
- Intracellular CA concentration (mouse PCLS; [2]): 103.6±10.3 pmol/mg protein
- Intracellular CDCA concentration (mouse PCLS; [2]): 14.7±1.6 pmol/mg protein
- Intracellular DCA concentration (mouse PCLS; [2]): 50.7±7.4 pmol/mg protein
- Intracellular GCA concentration (mouse PCLS; [2]): 13.4±2.4 pmol/mg protein
- Intracellular HDCA concentration (mouse PCLS; [2]): 9.4±2.7 pmol/mg protein
- Intracellular LCA concentration (mouse PCLS; [2]): 0.8±0.5 pmol/mg protein
- Intracellular TCA concentration (mouse PCLS; [2]): 103.8±8.6 pmol/mg protein
- Intracellular TCDCA concentration (mouse PCLS; [2]): 7.7±0.5 pmol/mg protein
- Intracellular TDCA concentration (mouse PCLS; [2]): 7.6±0.8 pmol/mg protein
- Intracellular THDCA concentration (mouse PCLS; [2]): 8.3±1.4 pmol/mg protein
- Intracellular UDCA concentration (mouse PCLS; [2]): 19.1±1.7 pmol/mg protein
- Total intracellular concentration of 11 BAs (mouse PCLS; [2]): 339.2±20.7 pmol/mg protein
- Intracellular CA concentration (mouse PCLS; [3]): 132.3±11.3 pmol/mg protein
- Intracellular CDCA concentration (mouse PCLS; [3]): 14.8±1.3 pmol/mg protein
- Intracellular DCA concentration (mouse PCLS; [3]): 121.3±8.6 pmol/mg protein
- Intracellular GCA concentration (mouse PCLS; [3]): 22.4 pmol/mg protein and 22.4±6.1 pmol/mg protein
- Intracellular HDCA concentration (mouse PCLS; [3]): 25.7±1.5 pmol/mg protein
- Intracellular LCA concentration (mouse PCLS; [3]): 0.9±0.3 pmol/mg protein
- Intracellular TCA concentration (mouse PCLS; [3]): 135.2±19.9 pmol/mg protein
- Intracellular TCDCA concentration (mouse PCLS; [3]): 8.6±1.2 pmol/mg protein
- Intracellular TDCA concentration (mouse PCLS; [3]): 14.6±0.9 pmol/mg protein
- Intracellular THDCA concentration (mouse PCLS; [3]): 11.4±2.6 pmol/mg protein
- Intracellular UDCA concentration (mouse PCLS; [3]): 24.5±3.9 pmol/mg protein
- Effect on total intracellular BA concentration (mouse PCLS; with humanized BA mixture, vs control): reduced or did not affect
- Intracellular CA concentration (mouse PCLS; [4]): 0.5±0.0 pmol/mg protein
- Intracellular CDCA concentration (mouse PCLS; [4]): 0.2±0.1 pmol/mg protein
- Intracellular DCA concentration (mouse PCLS; [4]): 0.6±0.5 pmol/mg protein
- Intracellular GCA concentration (mouse PCLS; [4]): 0.0±0.0 pmol/mg protein
- Intracellular HDCA concentration (mouse PCLS; [4]): 0.0±0.0 pmol/mg protein
- Intracellular LCA concentration (mouse PCLS; [4]): 0.1±0.1 pmol/mg protein
- Intracellular TCA concentration (mouse PCLS; [4]): 0.7±0.2 pmol/mg protein
- Intracellular TCDCA concentration (mouse PCLS; [4]): 2.3±0.5 pmol/mg protein
- Intracellular TDCA concentration (mouse PCLS; [4]): 0.0±0.0 pmol/mg protein
- Intracellular THDCA concentration (mouse PCLS; [4]): 1.8±0.3 pmol/mg protein
- Intracellular UDCA concentration (mouse PCLS; [4]): 0.0±0.0 pmol/mg protein
- Total intracellular concentration of 11 BAs (mouse PCLS; [4]): 6.3±0.0 pmol/mg protein
- Intracellular CA concentration (mouse PCLS; [5]): 0.5±0.2 pmol/mg protein
- Intracellular CDCA concentration (mouse PCLS; [5]): 0.4±0.3 pmol/mg protein
- Intracellular DCA concentration (mouse PCLS; [5]): 0.1±0.1 pmol/mg protein
- Intracellular GCA concentration (mouse PCLS; [5]): 0.0±0.0 pmol/mg protein
- Intracellular HDCA concentration (mouse PCLS; [5]): 0.0±0.0 pmol/mg protein
- Intracellular LCA concentration (mouse PCLS; [5]): 0.2±0.1 pmol/mg protein
- Intracellular TCA concentration (mouse PCLS; [5]): 0.3±0.1 pmol/mg protein
- Intracellular TCDCA concentration (mouse PCLS; [5]): 2.0±0.4 pmol/mg protein
- Intracellular TDCA concentration (mouse PCLS; [5]): 0.0±0.0 pmol/mg protein
- Intracellular THDCA concentration (mouse PCLS; [5]): 0.5±0.1 pmol/mg protein
- Intracellular UDCA concentration (mouse PCLS; [5]): 0.0±0.0 pmol/mg protein
- Total intracellular concentration of 11 BAs (mouse PCLS; [5]): 4.2±0.0 pmol/mg protein
- IC50 [1]: 103 µM
- Effect on MRP2 activity on a protein level (MRP2): stimulate MRP2 activity
